What was measured:
Assay type in all cases: in vivo
[1] = system: garden cress, Lepidium sativum; experiment: Herbicidal efficacy screen, potter tower spray, necrosis assessed; details: 200 g/ha
Experimental: (§1) Compounds 22, 23 and 24 were screened for herbicidal efficacy against target plants: garden cress, Lepidium sativum, common chickweed, Stellaria media, and white mustard […] alba Plants were obtained as seeds and were grown to the 2-4 true leaf stage. Plants were grown under laboratory conditions, individually in seed trays. Each plant (in an approximately 3 cm diameter plug) was then detached from the tray for spraying. The compounds were screened at a range of five concentrations, diluted in acetone and TweenTM. A carrier only control was also conducted. Treatments were applied directly onto the plants, using a potter tower, at a specified application rate. One plant of each species was sprayed using a potter tower. The 3 different types of plants were placed on a 10 cm diameter platform directly beneath the potter sprayer and sprayed simultaneously. The growth of the plants and any Phytotoxicity effects were then assessed at intervals over 21 days, according to EPPO guideline PP1/135. Five replicas were performed for each treatment, for each species. In the tables below C represents a percentage increase in necrosis relative to the control of 0.1-50; B represents a percentage inhibition of 50-80; and A represents a percentage inhibition of 80-100.

[2] = system: white mustard Sinapsis alba; experiment: as above
Experimental: as §1

[3] = system: Abutilon theophrasti (China Jute); experiment: Herbicidal efficacy screen, corrected necrosis
Experimental: (§2) Plants were obtained as seeds and were grown to the 2-4 true leaf stage. Plants were grown under laboratory conditions, individually in seed trays. Each plant (in an approximately 3 cm diameter plug) was then detached from the tray for spraying. The compounds were screened at a range of five concentrations, diluted in acetone and Tween™. A carrier only control was also conducted. Treatments were applied directly onto the plants, using a potter tower, at a specified application rate. One plant of each species was sprayed using a potter tower. The 3 different types of plants were placed on a 10 cm diameter platform directly beneath the potter sprayer and sprayed simultaneously. The growth of the plants and any Phytotoxicity effects were then assessed at intervals over 21 days, according to EPPO guideline PP1/135. In the tables below C represents a percentage increase in necrosis relative to the control of 0.1-50; B represents a percentage inhibition of 50-80; and A represents a percentage inhibition of 80-100. Certain compounds of the invention were screened for herbicidal efficacy against target plants: Amaranthus retroflexus (redroot pigweed), Abutilon theophrasti (China Jute): Capsella bursa-pastoris, (shepherd's-purse) Echinochloa crus-galli, Hordeum vulgare (Barley),

[4] = system: Amaranthus retroflexus (redroot pigweed); experiment: Herbicidal efficacy screen, corrected necrosis
Experimental: as §2

[5] = system: Capsella bursa-pastoris, (shepherd's-purse); experiment: Herbicidal efficacy screen, corrected necrosis
Experimental: as §2

[6] = 12.5 g/ha, day 1 post application
[7] = 12.5 g/ha, day 7 post application
[8] = 25 g/ha, day 1 post application
[9] = 25 g/ha, day 7 post application
[10] = 50 g/ha, day 1 post application
[11] = 50 g/ha, day 7 post application
[12] = 100 g/ha, day 1 post application
[13] = 100 g/ha, day 7 post application
[14] = 6.25 g/ha, day 1 post application
[15] = 6.25 g/ha, day 7 post application

With `CC(C)N(C)S(=O)(=O)/N=C/c1cc(-n2c(=O)cc(C(F)(F)F)n(C)c2=O)c(F)cc1Cl` [Compound 22, 1-[4-Chloro-2-fluoro-5-[(E)-(isopropyl(methyl)sulfamoyl)iminomethyl]phenyl]-3-methyl-2,6-dioxo-4-(trifluoromethyl)pyrimidine] the Average of necrosis ([1]; day 5 post application) was “B (B represents a percentage inhibition of 50-80)”, the Average of necrosis ([1]; day 7 post application) was “B (B represents a percentage inhibition of 50-80)” and the Average of necrosis ([1]; day 10 post application) was “A (A represents a percentage inhibition of 80-100)”. The Average of necrosis [2, 6] was “C (C represents a percentage increase in necrosis relative to the control of 0.1-50)”, the Average of necrosis ([2]; 12.5 g/ha, day 2 post application) was “C (C represents a percentage increase in necrosis relative to the control of 0.1-50)” and the Average of necrosis ([2]; 12.5 g/ha, day 3 post application) was “C (C represents a percentage increase in necrosis relative to the control of 0.1-50)”. For the same compound, the Average of necrosis ([2]; 12.5 g/ha, day 4 post application) was “C (C represents a percentage increase in necrosis relative to the control of 0.1-50)”, the Average of necrosis ([2]; 12.5 g/ha, day 5 post application) was “C (C represents a percentage increase in necrosis relative to the control of 0.1-50)” and the Average of necrosis [2, 7] was “C (C represents a percentage increase in necrosis relative to the control of 0.1-50)”. The Average of necrosis ([2]; 12.5 g/ha, day 10 post application) was “B (B represents a percentage inhibition of 50-80)”, the Average of necrosis [2, 8] was “C (C represents a percentage increase in necrosis relative to the control of 0.1-50)” and the Average of necrosis ([2]; 25 g/ha, day 2 post application) was “C (C represents a percentage increase in necrosis relative to the control of 0.1-50)”. For the same compound, the Average of necrosis ([2]; 25 g/ha, day 3 post application) was “C (C represents a percentage increase in necrosis relative to the control of 0.1-50)”, the Average of necrosis ([2]; 25 g/ha, day 4 post application) was “C (C represents a percentage increase in necrosis relative to the control of 0.1-50)” and the Average of necrosis ([2]; 25 g/ha, day 5 post application) was “C (C represents a percentage increase in necrosis relative to the control of 0.1-50)”. The Average of necrosis [2, 9] was “C (C represents a percentage increase in necrosis relative to the control of 0.1-50)”, the Average of necrosis ([2]; 25 g/ha, day 10 post application) was “C (C represents a percentage increase in necrosis relative to the control of 0.1-50)” and the Average of necrosis [2, 10] was “C (C represents a percentage increase in necrosis relative to the control of 0.1-50)”. For the same compound, the Average of necrosis ([2]; 50 g/ha, day 2 post application) was “C (C represents a percentage increase in necrosis relative to the control of 0.1-50)”, the Average of necrosis ([2]; 50 g/ha, day 3 post application) was “C (C represents a percentage increase in necrosis relative to the control of 0.1-50)” and the Average of necrosis ([2]; 50 g/ha, day 4 post application) was “C (C represents a percentage increase in necrosis relative to the control of 0.1-50)”. The Average of necrosis ([2]; 50 g/ha, day 5 post application) was “B (B represents a percentage inhibition of 50-80)”, the Average of necrosis [2, 11] was “B (B represents a percentage inhibition of 50-80)” and the Average of necrosis ([2]; 50 g/ha, day 10 post application) was “B (B represents a percentage inhibition of 50-80)”. For the same compound, the Average of necrosis [2, 12] was “C (C represents a percentage increase in necrosis relative to the control of 0.1-50)”, the Average of necrosis ([2]; 100 g/ha, day 2 post application) was “C (C represents a percentage increase in necrosis relative to the control of 0.1-50)” and the Average of necrosis ([2]; 100 g/ha, day 3 post application) was “C (C represents a percentage increase in necrosis relative to the control of 0.1-50)”. For the same compound, the Average of necrosis ([2]; 100 g/ha, day 4 post application) was “C (C represents a percentage increase in necrosis relative to the control of 0.1-50)”, the Average of necrosis ([2]; 100 g/ha, day 5 post application) was “C (C represents a percentage increase in necrosis relative to the control of 0.1-50)” and the Average of necrosis [2, 13] was “C (C represents a percentage increase in necrosis relative to the control of 0.1-50)”. For the same compound, the Average of necrosis ([2]; 100 g/ha, day 10 post application) was “B (B represents a percentage inhibition of 50-80)”, the Average of necrosis ([2]; 200 g/ha, day 1 post application) was “C (C represents a percentage increase in necrosis relative to the control of 0.1-50)” and the Average of necrosis ([2]; 200 g/ha, day 2 post application) was “C (C represents a percentage increase in necrosis relative to the control of 0.1-50)”. The Average of necrosis ([2]; 200 g/ha, day 3 post application) was “C (C represents a percentage increase in necrosis relative to the control of 0.1-50)”, the Average of necrosis ([2]; 200 g/ha, day 4 post application) was “C (C represents a percentage increase in necrosis relative to the control of 0.1-50)” and the Average of necrosis ([2]; 200 g/ha, day 5 post application) was “C (C represents a percentage increase in necrosis relative to the control of 0.1-50)”. The Average of necrosis ([2]; 200 g/ha, day 7 post application) was “C (C represents a percentage increase in necrosis relative to the control of 0.1-50)”, the Average of necrosis ([2]; 200 g/ha, day 10 post application) was “B (B represents a percentage inhibition of 50-80)” and the “Average of corrected necrosis” value [3, 14] was “C (C represents a percentage increase in necrosis relative to the control of 0.1-50)”. The “Average of corrected necrosis” value [3, 15] was “A (A represents a percentage inhibition of 80-100)”, the “Average of corrected necrosis” value [3, 6] was “C (C represents a percentage increase in necrosis relative to the control of 0.1-50)” and the “Average of corrected necrosis” value [3, 7] was “A (A represents a percentage inhibition of 80-100)”. The “Average of corrected necrosis” value [3, 8] was “C (C represents a percentage increase in necrosis relative to the control of 0.1-50)”, the “Average of corrected necrosis” value [3, 9] was “A (A represents a percentage inhibition of 80-100)” and the “Average of corrected necrosis” value [3, 10] was “C (C represents a percentage increase in necrosis relative to the control of 0.1-50)”. For the same compound, the “Average of corrected necrosis” value [3, 11] was “A (A represents a percentage inhibition of 80-100)”, the “Average of corrected necrosis” value [3, 12] was “C (C represents a percentage increase in necrosis relative to the control of 0.1-50)” and the “Average of corrected necrosis” value [3, 13] was “A (A represents a percentage inhibition of 80-100)”. For the same compound, the “Average of corrected necrosis” value [4, 14] was “C (C represents a percentage increase in necrosis relative to the control of 0.1-50)”, the “Average of corrected necrosis” value [4, 15] was “A (A represents a percentage inhibition of 80-100)” and the “Average of corrected necrosis” value [4, 6] was “C (C represents a percentage increase in necrosis relative to the control of 0.1-50)”. The “Average of corrected necrosis” value [4, 7] was “A (A represents a percentage inhibition of 80-100)”, the “Average of corrected necrosis” value [4, 8] was “C (C represents a percentage increase in necrosis relative to the control of 0.1-50)” and the “Average of corrected necrosis” value [4, 9] was “A (A represents a percentage inhibition of 80-100)”. For the same compound, the “Average of corrected necrosis” value [4, 10] was “C (C represents a percentage increase in necrosis relative to the control of 0.1-50)”, the “Average of corrected necrosis” value [4, 11] was “A (A represents a percentage inhibition of 80-100)” and the “Average of corrected necrosis” value [4, 12] was “C (C represents a percentage increase in necrosis relative to the control of 0.1-50)”. The “Average of corrected necrosis” value [4, 13] was “A (A represents a percentage inhibition of 80-100)”, the “Average of corrected necrosis” value [5, 14] was 0% and the “Average of corrected necrosis” value [5, 15] was “A (A represents a percentage inhibition of 80-100)”. The “Average of corrected necrosis” value [5, 6] was “C (C represents a percentage increase in necrosis relative to the control of 0.1-50)”, the “Average of corrected necrosis” value [5, 7] was “A (A represents a percentage inhibition of 80-100)” and the “Average of corrected necrosis” value [5, 8] was “C (C represents a percentage increase in necrosis relative to the control of 0.1-50)”. For the same compound, the “Average of corrected necrosis” value [5, 9] was “A (A represents a percentage inhibition of 80-100)”, the “Average of corrected necrosis” value [5, 10] was 0% and the “Average of corrected necrosis” value [5, 11] was “A (A represents a percentage inhibition of 80-100)”. The “Average of corrected necrosis” value [5, 12] was “C (C represents a percentage increase in necrosis relative to the control of 0.1-50)” and the “Average of corrected necrosis” value [5, 13] was “A (A represents a percentage inhibition of 80-100)”.

Reference: patent US9951028B2, “Agricultural chemicals” (REDAG CROP PROTECTION LTD, priority 2013, dated 2018)
